Measured values: patent publication US20140082772A1, “Herbicide-Tolerant Plants” (priority 2010, published 2014)

Tests used:
[1] = test system: AHAS-inhibitor susceptible WOSR line; experiment: Plot pre-emergence crop tolerance (PHYTOX), Example 4, susceptible line; type: in vivo, Brassica napus
Procedure: (§1) Plants of an AHAS-inhibitor tolerant WOSR line and plants of an AHAS-inhibitor susceptible WOSR line are sown side by side in a plot. A pre-emergence treatment of herbicides is applied to the plants by means of fine distributed nozzles. There are four replications of each treatment.
(§2) The evaluation for crop-tolerance is assessed as PHYTOX symptom caused by the chemical compounds carried out using a scale from 0 to 100%, compared to the untreated control plants. Here, 0 means no damage and 100 means complete destruction of the plants.

[2] = test system: AHAS-inhibitor tolerant WOSR line; experiment: Plot pre-emergence crop tolerance (PHYTOX), Example 4, tolerant line; type: in vivo, Brassica napus
Procedure: as §1, §2

[3] = test system: second AHAS-inhibitor susceptible WOSR line; experiment: Greenhouse post-emergence herbicide crop damage, Example 2, susceptible line; type: in vivo, Brassica napus; conditions: post-emergence at GS/BBCH 10, assessed 19 DAT
Procedure: (§3) Plants of an AHAS-inhibitor tolerant WOSR line and plants of a second AHAS-inhibitor susceptible WOSR line are sown in 10 cm pots with a sandy loam. Each pot is planted with two plants, the plants are watered from beneath and fertilized according there requirement. The pots are stored side by side in a greenhouse at 12° C. at the emergence phase. The temperature increases to 15-20° C. three weeks after sowing.
(§4) A post-emergence treatment of herbicides is applied to the plants by means of fine distributed nozzles and a water use rate of 200 L/ha at the growth stage GS/BBCH 10. The herbicides are tested at different rates. Twelve cultivar replicates are carried out per rate.
(§5) The evaluation of efficacy is assessed as crop damage caused by the herbicides using a scale from 0 to 100%, compared to the untreated control plants. Here, 0 means no damage and 100 means complete destruction of the plants. The level of efficacy is assessed 19 days after treatment (DAT). The efficacy results are presented as ED50 values.

[4] = test system: AHAS-inhibitor tolerant WOSR line; experiment: Greenhouse post-emergence herbicide crop damage, Example 2, tolerant line; type: in vivo, Brassica napus; conditions: post-emergence at GS/BBCH 10, assessed 19 DAT
Procedure: as §3, §4, §5

[5] = test system: first AHAS-inhibitor susceptible WOSR line; experiment: Greenhouse post-emergence herbicide crop damage, Example 1, susceptible line; type: in vivo, Brassica napus; conditions: post-emergence at GS/BBCH 12, assessed 21-22 DAT
Procedure: (§6) Each pot is planted with two plants, the plants are watered from beneath and fertilized according there requirement. The pots are stored side by side in a greenhouse at 12° C. at the emergence phase. The temperature increases to 15-20° C. three weeks after sowing.
(§7) A post-emergence treatment of herbicides is applied to the plants by means of fine distributed nozzles and a water use rate of 200 L/ha at the growth stage GS/BBCH 12 (2 true leaf stage). The herbicides are tested at different rates. Five cultivar replicates are carried out per rate.
as §5, with “21-22” for “19”

[6] = test system: AHAS-inhibitor tolerant WOSR line; experiment: Greenhouse post-emergence herbicide crop damage, Example 1, tolerant line; type: in vivo, Brassica napus; conditions: post-emergence at GS/BBCH 12, assessed 21-22 DAT
Procedure: as §6, §7
as §5, with “21-22” for “19”

AHAS-tolerant SOSR line = experiment: Plot post-emergence crop tolerance (PHYTOX), Example 3, SOSR; type: in vivo, Brassica napus; conditions: post-emergence at GS 12/13, 15 DAT, crop GS 13/14, AI rate g/ha: flupyrsulfuron-methyl-sodium 5, thifensulfuron-methyl 15, tritosulfuron 25, tribenuron-methyl 15
Procedure: as §1, with “AHAS-tolerant SOSR” for “AHAS-inhibitor susceptible WOSR”, “post-emergence” for “pre-emergence”, “nozzles at the growth stage GS/BBCH 12/13.” for “nozzles.”
as §2

[7] = test system: AHAS-inhibitor tolerant WOSR line; experiment: Plot post-emergence crop tolerance (PHYTOX), Example 3, WOSR; type: in vivo, Brassica napus; conditions: post-emergence at GS 12/13, 15 DAT, crop GS 14/15, AI rate g/ha: flupyrsulfuron-methyl-sodium 5, thifensulfuron-methyl 15, tritosulfuron 25, tribenuron-methyl 15
Procedure: as §1, with “AHAS-tolerant SOSR” for “AHAS-inhibitor susceptible WOSR”, “post-emergence” for “pre-emergence”, “nozzles at the growth stage GS/BBCH 12/13.” for “nozzles.”
as §2

[8] = test system: spring-type B. napus cultivar, 45A77; conditions: PM-mutant gene-containing spring-type cultivar 45A77; R. Degenhardt et al., Weed Technology 19, 2005, 608; cited from earlier work
[9] = 10 DAT, crop GS 10/11, AI rate g/ha: propoxycarbazone 7, sulfosulfuron 2, flupyrsulfuron-methyl 1.8, amidosulfuron 2.75
[10] = 29 DAT, crop GS 11/13, AI rate g/ha: propoxycarbazone 7, sulfosulfuron 2, flupyrsulfuron-methyl 1.8, amidosulfuron 2.75

| Compound | PHYTOX % [1, 9] | PHYTOX % [1, 10] | PHYTOX % [2, 9] | PHYTOX % [2, 10] | ED50 (crop damage, scale 0 to 100% vs untreated control) [3] | ED50 (crop damage, scale 0 to 100% vs untreated control) [4] | ED50 (crop damage, scale 0 to 100% vs untreated control) [5] | ED50 (crop damage, scale 0 to 100% vs untreated control) [6] | PHYTOX % (AHAS-tolerant SOSR line) | PHYTOX % [7] | effect of application on the crop [8] |
| --- | --- | --- | --- | --- | --- | --- | --- | --- | --- | --- | --- |
| COc1cc(OC)nc(NC(=O)NS(=O)(=O)N(C)S(C)(=O)=O)n1 [Amidosulfuron] | 100% | 100% | 0% | 0% | – | – | – | – | – | – | – |
| COc1nc(C)nc(NC(=O)NS(=O)(=O)c2ccccc2Cl)n1 [Chlorsulfuron] | – | – | – | – | 0.04 g/ai/ha | 11.2 g/ai/ha | 0.42 g/ai/ha | 2.8 g/ai/ha | – | – | – |
| COc1ncc(F)c2nc(S(=O)(=O)Nc3c(F)cccc3F)nn12 [Florasulam] | – | – | – | – | 0.28 g/ai/ha | 4.9 g/ai/ha | 1.51 g/ai/ha | 6.53 g/ai/ha | – | – | – |
| COC(=O)c1ccc(C(F)(F)F)nc1S(=O)(=O)NC(=O)Nc1nc(OC)cc(OC)n1 [Flupyrsulfuron-methyl-sodium] | – | – | – | – | 0.79 g/ai/ha | 147.97 g/ai/ha | 0.58 g/ai/ha | 63316.17 g/ai/ha | 19% | 11% | – |
| COC(=O)c1ccc(C(F)(F)F)nc1S(=O)(=O)NC(=O)Nc1nc(OC)cc(OC)n1 [Flupyrsulfuron-methyl] | 100% | 100% | 0% | 0% | – | – | – | – | – | – | – |
| COC(=O)c1ccccc1S(=O)(=O)NC(=O)Nc1nc(C)nc(OC)n1 [Metsulfuron-methyl] | – | – | – | – | 0.17 g/ai/ha | 2.28 g/ai/ha | 0.57 g/ai/ha | 5.06 g/ai/ha | – | – | – |
| CCCOc1nn(C(=O)[N-]S(=O)(=O)c2ccccc2C(=O)OC)c(=O)n1C.[Na+] [Propoxycarbazone-sodium] | – | – | – | – | 0.17 g/ai/ha | 42.07 g/ai/ha | 2.16 g/ai/ha | 67.43 g/ai/ha | – | – | – |
| CCCOc1nn(C(=O)[N-]S(=O)(=O)c2ccccc2C(=O)OC)c(=O)n1C.[Na+] [Propoxycarbazone] | 100% | 100% | 0% | 0% | – | – | – | – | – | – | – |
| CCS(=O)(=O)c1nc2ccccn2c1S(=O)(=O)NC(=O)Nc1nc(OC)cc(OC)n1 [Sulfosulfuron] | 99% | 99% | 0% | 0% | 0.01 g/ai/ha | 3.29 g/ai/ha | 1.70 g/ai/ha | 2417.06 g/ai/ha | – | – | – |
| COC(=O)c1sccc1S(=O)(=O)NC(=O)Nc1nc(C)nc(OC)n1 [Thifensulfuron-methyl] | – | – | – | – | – | – | – | – | 23% | 13% | – |
| COC(=O)c1ccccc1S(=O)(=O)NC(=O)N(C)c1nc(C)nc(OC)n1 [Tribenuron-methyl] | – | – | – | – | 0.11 g/ai/ha | 9.11 g/ai/ha | 2.59 g/ai/ha | 25.88 g/ai/ha | 25% | 17% | – |
| COc1nc(NC(=O)NS(=O)(=O)c2ccccc2C(F)(F)F)nc(C(F)(F)F)n1 [Tritosulfuron] | – | – | – | – | 1.76 g/ai/ha | 2.96 g/ai/ha | 0.39 g/ai/ha | 42.30 g/ai/ha | 53% | 43% | – |
| COc1nc(C)nc(NC(=O)NS(=O)(=O)c2ccsc2C(=O)O)n1 [thifensulfuron] | – | – | – | – | – | – | – | – | – | – | reduced canola biomass, herbicide injury symptoms, or delayed maturity |
| Trisulfuron-methyl [Trisulfuron-methyl 500] | – | – | – | – | 0.03 g/ai/ha | 4.48 g/ai/ha | 3.36 g/ai/ha | 41.81 g/ai/ha | – | – | – |
